Laboratory results from publication PMC3203342 (Nature, 2011).

Assays:
Or59b/Orco in ab2A OSN = biological target: T1, Or59b/Orco in ab2A OSN (Drosophila melanogaster, UniProt Q9W1P8); test: single sensillum recording, dose-response; assay type: cell-based; conditions: native ab2A neuron; vapour; inhibitor of spontaneous activity
T1 sequence (Q9W1P8 1-398): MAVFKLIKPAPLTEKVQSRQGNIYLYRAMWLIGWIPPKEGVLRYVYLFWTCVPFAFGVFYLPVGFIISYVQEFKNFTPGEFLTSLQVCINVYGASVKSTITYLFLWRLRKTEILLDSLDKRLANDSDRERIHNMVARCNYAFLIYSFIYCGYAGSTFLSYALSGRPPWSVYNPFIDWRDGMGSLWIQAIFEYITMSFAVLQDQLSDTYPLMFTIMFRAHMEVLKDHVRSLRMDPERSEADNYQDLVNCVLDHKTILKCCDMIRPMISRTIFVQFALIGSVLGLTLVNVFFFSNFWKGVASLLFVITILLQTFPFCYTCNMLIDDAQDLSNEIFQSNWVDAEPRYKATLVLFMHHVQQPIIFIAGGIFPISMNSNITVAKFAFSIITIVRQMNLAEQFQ
T1 sequence (Q9VNB5 1-486 partner): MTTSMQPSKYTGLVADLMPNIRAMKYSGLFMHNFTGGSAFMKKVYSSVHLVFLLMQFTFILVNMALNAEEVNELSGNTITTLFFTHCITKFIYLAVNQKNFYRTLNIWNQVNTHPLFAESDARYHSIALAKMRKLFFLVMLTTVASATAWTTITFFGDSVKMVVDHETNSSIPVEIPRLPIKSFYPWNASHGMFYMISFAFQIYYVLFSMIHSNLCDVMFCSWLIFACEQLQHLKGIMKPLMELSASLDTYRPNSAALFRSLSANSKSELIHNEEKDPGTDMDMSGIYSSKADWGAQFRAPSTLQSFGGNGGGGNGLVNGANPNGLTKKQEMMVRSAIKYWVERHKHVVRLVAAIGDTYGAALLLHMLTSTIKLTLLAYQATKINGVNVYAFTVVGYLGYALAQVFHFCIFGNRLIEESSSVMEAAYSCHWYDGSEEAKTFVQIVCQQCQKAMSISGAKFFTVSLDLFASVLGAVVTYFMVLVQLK

Or85a/Orco in ab2B OSN = biological target: T2, Or85a/Orco in ab2B OSN (Drosophila melanogaster, UniProt Q9VHS4); test: single sensillum recording, dose-response; assay type: cell-based; conditions: native ab2B neuron; vapour; agonist
T2 sequence (Q9VHS4 1-397): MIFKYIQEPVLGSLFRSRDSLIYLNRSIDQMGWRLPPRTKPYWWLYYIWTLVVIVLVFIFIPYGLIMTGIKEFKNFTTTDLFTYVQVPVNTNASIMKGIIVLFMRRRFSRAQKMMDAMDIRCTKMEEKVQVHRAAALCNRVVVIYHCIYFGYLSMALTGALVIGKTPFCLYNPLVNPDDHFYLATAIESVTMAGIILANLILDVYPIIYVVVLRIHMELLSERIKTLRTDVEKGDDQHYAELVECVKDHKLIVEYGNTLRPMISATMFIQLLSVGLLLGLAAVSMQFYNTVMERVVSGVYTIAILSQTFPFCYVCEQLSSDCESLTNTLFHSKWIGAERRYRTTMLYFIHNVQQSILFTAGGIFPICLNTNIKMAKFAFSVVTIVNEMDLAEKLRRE
T2 sequence (Q9VNB5 1-486 partner): T1 sequence (Q9VNB5 1-486 partner)

| Structure (SMILES) | Δ spikes/s (Or59b/Orco in ab2A OSN) | Δ spikes/s (Or85a/Orco in ab2B OSN) |
| --- | --- | --- |
| CCCCCCCCO [1-octanol] | DEET interfered with inhibition of Or59b/Orco by 1-octen-3-ol, 1-octanol, and linalool |  |
| C=CC(O)CCCCC (stereo not drawn) [1-octen-3-ol] |  | activating the ab2B neuron expressing Or85a/Orco (Fig. 1e) |
| C=C[C@](C)(O)CCC=C(C)C [linalool] | DEET interfered with inhibition of Or59b/Orco by 1-octen-3-ol, 1-octanol, and linalool |  |
